According to patent publication US7723564B2, “Compositions and methods for modulation of KSR1 and KSR2 interactions” (Board of Regents of the University of Nebraska, priority 2006, dated 2010):

What was measured:
AMPK-KSR1 interaction = experiment: Coimmunoprecipitation of AMPK with KSR1; assay type: cell-based; conditions: AMPK expressed in cells with KSR1; FIG. 22
Text: (§1) FIG. 22. is a series of western blots showing that AMPK coimmunopreciptates with KSR1 and KSR2.
(§2) AMP activated protein kinase (AMPK) is a critical regulator of catabolism in cells, promoting the synthesis of ATP and inhibiting the anabolic effects of other hormones to promote […]. AMPK is an indirect target of the widely prescribed anti-diabetic drug metformin. […] When AMPK is expressed in cells with either KSR or KSR2, AMPK is found to precipitate with either protein. AMPK is not precipitated in the absence of KSR proteins.

AMPK-KSR2 interaction = experiment: Coimmunoprecipitation of AMPK with KSR2; assay type: cell-based; conditions: AMPK expressed in cells with KSR2; FIG. 22
Text: as §1, §2

## CC[C@H]1/C=C/C=C/C[C@@H](C)[C@H](O)[C@@](C)(O)C(=O)[C@@H](C)[C@H](O)[C@@H](C)C(=O)[C@@H](C)[C@H](O)[C@@H](C)/C=C/C(=O)O[C@@H]2[C@H](C)[C@H](CC1)O[C@]1(CC[C@H](C)[C@H](C[C@@H](C)O)O1)[C@H]2C [oligomycin]
AMPK-KSR1 interaction
  Effect on interaction of AMPK with KSR1: does not alter
AMPK-KSR2 interaction
  Effect on interaction of AMPK with KSR2: does not alter
